Experimental data reported in patent publication US9908899B2 (BIOMARIN PHARMACEUTICAL INC., priority 2011, dated 2018).
Read-outs that look alike come from different tables or passages of the source.

Assays:
[1] = target: HDAC1 (Homo sapiens (Human), UniProt Q13547); experiment: HDAC activity inhibition assay, HDAC1; assay type: biochemical; conditions: Table 1; 2 hours pre-incubation
Method: (§1) The HDAC activity inhibition assay was performed as follows to determine the ability of a test compound to inhibit HDAC enzymatic activity. […] Following pre-incubation, Fluor-de-Lys™ substrate (Enzo Life Sciences, Plymouth Meeting, Pa., BML-KI104-0050) was added to a final concentration of 10 μM and plates were further incubated for 30 minutes at room temperature. […] IC50 values were calculated by using a sigmoidal dose-response (variable slope) equation in GraphPad Prism® 5 for Windows (GraphPad Software, La Jolla, Calif.).

[2] = target: HDAC2 (Homo sapiens (Human), UniProt Q92769); experiment: HDAC activity inhibition assay, HDAC2; assay type: biochemical
Method: as §1

[3] = target: HDAC3/NcoR2 (Homo sapiens (Human), UniProt O15379); experiment: HDAC activity inhibition assay, HDAC3/NcoR2; assay type: biochemical
Method: as §1

[4] = Acid stability determination; assay type: physicochemical; conditions: 100 μM in 0.01 M HCl, 50° C.
Method: A 100 μM solution of test compound was prepared by dilution of a 10 mM DMSO stock solution in a 0.01 M solution of HCl in deionized water. Immediately after mixing, an aliquot (100 μL) was sampled and analyzed by HPLC/UV. The area under the compound peak was determined and used as the time zero reference point. The remainder of the acid sample was incubated at 50° C. and samples were taken after 2, 4, and 24 hours of incubation. On a few occasions, samples were taken at 30 rather than 24 hours. These were analyzed by the same HPLC/UV method and the area of the peak corresponding to the test compound was measured. Percent remaining at a given time point was then calculated as the ratio of the area under the peak after incubation to that at time zero times 100. In those cases where a 30 hour time point was recorded, the percent remaining at 24 hours was obtained by interpolation of the percent remaining versus time curve assuming a unimolecular process, i.e. a monoexponential decay. Percent remaining after 24 hours incubation are presented in Tables 2 and 4 below, where A corresponds to more than 60%, B is between 40 and 60%, C covers 20 to 40% and D means less than 20%.

[5] = test system: Frataxin (FXN) mRNA; experiment: Effect of HDAC inhibitors on frataxin (FXN) mRNA expression in Friedreich's ataxia patient primary lymphocytes; assay type: cell-based, human; conditions: Homo sapiens, Lymphocyte; Friedreich's ataxia patient primary lymphocytes, 48 hours; read-out: FXN 2x (concentration required for a 2-fold increase in FXN mRNA)
Method: Blood is collected from Friedreich's ataxia patient donors into tubes containing the anti-coagulant EDTA. Primary lymphocytes are isolated using Lymphocyte Separation Medium (MP Biomedicals, Solon, Ohio) following the manufacturer's instructions and including a few modifications made by Repligen. After a final wash in Phosphate Buffered Saline (PBS), the cells are distributed into a 6-well cell culture plate in cell growth medium. The test HDAC inhibitor compound is added to cells in a dose escalating manner (usually concentrations range from 1 to 10 μM) and 0.1% DMSO is added to one well of cells as a no treatment control. Cells are incubated for 48 hours at 37° C. in a CO2 incubator; cell counts are taken using a Countess automated cell counter (Invitrogen, Carlsbad, Calif.). Equivalent numbers of cells for all treatment conditions are pelleted by centrifugation and resuspended in cell lysis buffer. Total RNA is isolated from approximately 1×10^6 primary lymphocytes using a RNeasy Mini Kit (Qiagen, Valencia, Calif.), following the manufacturer's instructions and including an optional on-column DNAse digestion step. The isolation is performed either manually or using the QIAcube (Qiagen, Valencia, Calif.), an instrument that automates much of the isolation procedure. The RNA yield and concentration is determined using a Nanodrop spectrophotometer (Thermo Fisher Scientific, Waltham, Mass.) and depending on the RNA concentration, one of two protocols is used to measure frataxin (FXN) transcript levels. For samples containing at least 15 ng/μL RNA a TaqMan® Probe-based (Applied Biosystems, Carlsbad, Calif.) qRT-PCR method is used, while for samples containing less than 15 ng/μL RNA a SYBR Green qRT-PCR method is used. In the TaqMan® Probe-based method specific primer/probe pairs for FXN and GAPDH are multiplexed in each reaction. In the SYBR Green method FXN and GAPDH are amplified in separate reactions. In both methods each RNA sample is analyzed in triplicate (preferably) or duplicate (minimally) using a one-step qRT-PCR master mix that contains all the components necessary for cDNA synthesis and PCR amplification in a single, continuous reaction. After cycling is complete, MxPro Software (Agilent Technologies, Santa Clara, Calif.) is used to analyze the collected data and determine the relative amount of FXN mRNA compared to a control sample. An adaptive baseline method is used for baseline correction whereby an algorithm automatically selects the appropriate baseline cycles for each well and each dye. An amplification-based threshold is set and the corresponding threshold cycle, or Ct, is obtained for calculating target concentration. The Ct values for each target gene (FXN and GAPDH) for each replicate series are averaged. The amount of FXN (or GAPDH) in the sample is determined as the relative quantity to the calibrator where the calibrator sample is assigned an arbitrary quantity of 1. The following equation is used: Relative quantity to the calibrator=2^−ΔCt where ΔCt=(Ct_gene)unknown−(Ct_gene)calibrator, gene is either FXN or GAPDH, calibrator is a DMSO control sample, and unknown is a HDACi treated sample. The relative quantity of FXN is normalized to cell number and RNA input. Data is reported in Tables 2 and 4 below, where the concentration required for a 2-fold increase in FXN mRNA is reported as A if less than 5 μM, B if between 5 and 10 μM, C if greater than 10 μM.

[6] = Table 1, 2 hours pre-incubation

Chain of HDAC1 (Q13547 whole entry): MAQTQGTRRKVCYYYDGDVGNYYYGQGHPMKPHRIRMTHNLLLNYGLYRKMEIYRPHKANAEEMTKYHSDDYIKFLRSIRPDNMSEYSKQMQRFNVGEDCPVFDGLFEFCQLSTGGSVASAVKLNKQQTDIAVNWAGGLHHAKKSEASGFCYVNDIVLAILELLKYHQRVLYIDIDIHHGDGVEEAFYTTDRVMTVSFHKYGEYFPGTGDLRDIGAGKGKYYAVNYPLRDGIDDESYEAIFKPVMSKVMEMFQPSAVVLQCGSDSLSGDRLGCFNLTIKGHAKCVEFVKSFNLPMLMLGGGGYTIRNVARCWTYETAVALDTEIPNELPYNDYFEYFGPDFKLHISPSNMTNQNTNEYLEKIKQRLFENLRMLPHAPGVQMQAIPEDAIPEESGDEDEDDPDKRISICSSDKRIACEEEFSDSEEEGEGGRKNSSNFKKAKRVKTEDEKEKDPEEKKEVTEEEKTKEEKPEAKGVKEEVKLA
Chain of HDAC2 (Q92769 whole entry): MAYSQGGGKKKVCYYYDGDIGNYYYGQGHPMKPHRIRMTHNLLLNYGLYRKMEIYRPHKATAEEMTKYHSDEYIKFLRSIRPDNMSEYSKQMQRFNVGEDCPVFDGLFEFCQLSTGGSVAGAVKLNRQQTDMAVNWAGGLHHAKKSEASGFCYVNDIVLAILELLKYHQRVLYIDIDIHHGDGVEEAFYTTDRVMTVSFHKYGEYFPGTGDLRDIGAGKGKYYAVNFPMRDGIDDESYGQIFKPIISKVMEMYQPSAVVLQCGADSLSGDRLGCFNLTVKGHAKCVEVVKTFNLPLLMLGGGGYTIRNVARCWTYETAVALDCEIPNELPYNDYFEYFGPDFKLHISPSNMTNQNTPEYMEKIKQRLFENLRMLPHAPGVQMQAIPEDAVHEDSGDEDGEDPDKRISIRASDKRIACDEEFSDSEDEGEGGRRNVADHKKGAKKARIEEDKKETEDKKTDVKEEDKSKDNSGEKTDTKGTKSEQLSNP
Chain of HDAC3/NcoR2 (O15379 whole entry): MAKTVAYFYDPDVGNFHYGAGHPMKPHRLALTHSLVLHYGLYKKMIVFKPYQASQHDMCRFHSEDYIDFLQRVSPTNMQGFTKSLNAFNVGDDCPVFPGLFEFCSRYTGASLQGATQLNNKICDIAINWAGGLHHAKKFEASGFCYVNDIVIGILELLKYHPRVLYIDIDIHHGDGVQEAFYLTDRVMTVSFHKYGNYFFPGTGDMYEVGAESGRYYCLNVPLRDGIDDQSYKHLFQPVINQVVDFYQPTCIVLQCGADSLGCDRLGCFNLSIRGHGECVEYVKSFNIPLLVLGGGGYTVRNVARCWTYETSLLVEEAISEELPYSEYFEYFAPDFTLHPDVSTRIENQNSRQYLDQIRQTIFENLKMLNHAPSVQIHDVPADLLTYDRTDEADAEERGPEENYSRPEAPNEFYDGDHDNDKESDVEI
Chain of HDAC3/NcoR2 (Q9Y618 395-489 partner): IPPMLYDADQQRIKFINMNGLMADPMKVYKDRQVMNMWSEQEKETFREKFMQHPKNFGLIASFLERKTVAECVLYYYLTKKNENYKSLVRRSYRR

Compound | IC50 [1] | IC50 [2, 6] | IC50 [3, 6] | acid stability (percent remaining after 24 hours incubation) [4] | IC50 [2] | IC50 [3] | EC (2-fold FXN mRNA) [5]
Cc1nc(/C=C/C(=O)Nc2ccccc2N)cs1 [A1] | 1 to 5 µM | 5 to 10 µM | < 1 µM |  |  |  | 
Cn1cc(/C=C/C(=O)Nc2ccccc2N)cn1 [A2] | 5 to 10 µM | 10 to 20 µM | < 1 µM | B (B is between 40 and 60%) |  |  | 
Cc1ncc(/C=C/C(=O)Nc2ccccc2N)s1 [A3] | 5 to 10 µM | 5 to 10 µM | < 1 µM |  |  |  | 
Cc1nc(/C=C/C(=O)Nc2ccccc2N)co1 [A4] | > 20 µM | > 20 µM | 1 to 5 µM |  |  |  | 
Cc1cc(/C=C/C(=O)Nc2ccccc2N)on1 [A5] | 10 to 20 µM | 10 to 20 µM | < 1 µM | B (B is between 40 and 60%) |  |  | 
Nc1ccccc1NC(=O)/C=C/c1cnc2ccccn12 [A6, (E)-N-(2-aminophenyl)-3-(imidazo[1,2-a]pyridin-3-yl)acrylamide] | 5 to 10 µM | 5 to 10 µM | < 1 µM |  |  |  | 
Cn1ccc(/C=C/C(=O)Nc2ccccc2N)n1 [A7] | 1 to 5 µM | 1 to 5 µM | < 1 µM |  |  |  | 
Nc1ccccc1NC(=O)/C=C/c1cc2ccccn2n1 [A8] | < 1 µM | 1 to 5 µM | < 1 µM | B (B is between 40 and 60%) |  |  | 
Nc1ccccc1NC(=O)/C=C/c1cn2ccccc2n1 [A9] | 1 to 5 µM | 1 to 5 µM | < 1 µM |  |  |  | 
Nc1ccccc1NC(=O)/C=C/c1cn2ccnc2s1 [A10] | 1 to 5 µM | 1 to 5 µM | < 1 µM |  |  |  | 
Nc1ccccc1NC(=O)/C=C/c1cnn(-c2ccccc2)c1 [A11] | 1 to 5 µM | 1 to 5 µM | < 1 µM | A (A corresponds to more than 60%) |  |  | 
Cn1cnc(/C=C/C(=O)Nc2ccccc2N)c1 [A12] | 1 to 5 µM | 5 to 10 µM | < 1 µM |  |  |  | 
Nc1ccccc1NC(=O)/C=C/c1cnn(CC2CC2)c1 [B1] | 1 to 5 µM | 5 to 10 µM | < 1 µM |  |  |  | 
Nc1ccccc1NC(=O)/C=C/c1cnn(C/C=C/c2ccc(F)cc2)c1 [B2] | < 1 µM | 1 to 5 µM | < 1 µM |  |  |  | 
Nc1ccccc1NC(=O)/C=C/c1cnn(CCOc2cc(F)cc(F)c2)c1 [B3, (E)-N-(2-aminophenyl)-3-(1-(2-(3,5-difluorophenoxy)ethyl)-1H-pyrazol-4-yl)acrylamide] | < 1 µM | < 1 µM | < 1 µM |  |  |  | 
Nc1ccccc1NC(=O)/C=C/c1cnn(CCOc2ccc(C(F)(F)F)cc2)c1 [B4] | < 1 µM | 1 to 5 µM | < 1 µM |  |  |  | 
Nc1ccccc1NC(=O)/C=C/c1cnn(CCOc2cc(F)cc(Cl)c2)c1 [B5, (E)-N-(2-aminophenyl)-3-(1-(2-(3-chloro-5-fluorophenoxy)ethyl)-1H-pyrazol-4-yl)acrylamide] | < 1 µM | < 1 µM | < 1 µM |  |  |  | 
Nc1ccccc1NC(=O)/C=C/c1cnn(CCOc2ccc(F)cc2)c1 [B6] | < 1 µM | < 1 µM | < 1 µM |  |  |  | 

Compound | IC50 [1] | IC50 [2, 6] | IC50 [3, 6] | acid stability (percent remaining after 24 hours incubation) [4] | IC50 [2] | IC50 [3] | EC (2-fold FXN mRNA) [5]
CCn1cc(/C=C/C(=O)Nc2ccccc2N)cn1 [C1] | 1 to 5 µM | 1 to 5 µM | < 1 µM |  |  |  | 
Cn1cc(/C=C/C(=O)Nc2ccc(F)cc2N)cn1 [C2] |  |  |  |  | > 20 µM | 1 to 5 µM | 
Nc1ccccc1NC(=O)/C=C/c1cnn(Cc2ccc(F)cc2)c1 [D5] | < 1 µM | 1 to 5 µM | < 1 µM |  |  |  | 
Cc1cccc(Cn2cc(/C=C/C(=O)Nc3ccccc3N)cn2)n1 [D6] | 1 to 5 µM | 1 to 5 µM |  |  |  |  | > 10 µM
Nc1ccccc1NC(=O)/C=C/c1cnn(CCCc2ccccc2)c1 [D8] | < 1 µM | < 1 µM | < 1 µM |  |  |  | > 10 µM
Nc1ccccc1NC(=O)/C=C/c1cnn(CC(F)(F)c2ccccc2)c1 [D10] | < 1 µM | 1 to 5 µM | < 1 µM |  |  |  | > 10 µM
Nc1ccccc1NC(=O)/C=C/c1cnn(CC/C=C/c2ccccc2)c1 [D11] | < 1 µM | < 1 µM | < 1 µM |  |  |  | 5 to 10 µM
CN(CCCn1cc(/C=C/C(=O)Nc2ccccc2N)cn1)c1ccccc1 [D12] |  |  |  | A (A corresponds to more than 60%) |  |  | 
Nc1ccccc1NC(=O)/C=C/c1cnn(CCc2c[nH]c3ccccc23)c1 [D13] | < 1 µM | < 1 µM | < 1 µM |  |  |  | 
Nc1ccccc1NC(=O)/C=C/c1cnn(CCCOc2ccccc2)c1 [D15] | < 1 µM | < 1 µM | < 1 µM |  |  |  | 
Nc1cc(F)ccc1NC(=O)/C=C/c1cnn(CCOc2ccccc2)c1 [D16] | 1 to 5 µM | 1 to 5 µM | < 1 µM |  |  |  | 
CCOCc1cn2cc(/C=C/C(=O)Nc3ccccc3N)sc2n1 [E1, (E)-N-(2-aminophenyl)-3-(6-(ethoxymethyl)imidazo[2,1-b]thiazol-2-yl)acrylamide] | 1 to 5 µM | 5 to 10 µM | < 1 µM |  |  |  | 
Nc1ccccc1NC(=O)/C=C/c1csc(C/C=C/c2ccccc2)n1 [E2, (E)-N-(2-aminophenyl)-3-(2-cinnamylthiazol-4-yl)acrylamide] | < 1 µM | 1 to 5 µM | < 1 µM | A (A corresponds to more than 60%) |  |  | 
Nc1ccccc1NC(=O)c1ccc(C=C2CCN(C(=O)OCc3ccccc3)CC2)cc1 [F1] | < 1 µM | 1 to 5 µM | < 1 µM | B (B is between 40 and 60%) |  |  | 
Nc1ccccc1NC(=O)c1ccc(CC2CN(Cc3ccc4cc[nH]c4c3)C2)cc1 [F4] | < 1 µM |  | < 1 µM | B (B is between 40 and 60%) |  |  | < 5 µM
Nc1ccccc1NC(=O)c1ccc(C=C2CN(Cc3ccc4cc[nH]c4c3)C2)c(Cl)c1 [F5, 4-((1-((1H-indol-6-yl)methyl)azetidin-3-ylidene)methyl)-N-(2-aminophenyl)-3-chlorobenzamide] | < 1 µM | 1 to 5 µM | < 1 µM |  |  |  | 
Nc1ccccc1NC(=O)c1ccc(C=C2CN(Cc3cccnc3)C2)c(Cl)c1 [F6] |  | 1 to 5 µM |  |  |  |  | 
